Source: patent EP0612525B1, “Transdermal treatment with mast cell degranulating agents for drug-induced hypersensitivity” (BRISTOL-MYERS SQUIBB COMPANY, priority 1993, dated 1994)
Several values for one entry are separate records, joined by “and”; a condition that tells them apart may be missing. Identical values can stand only once.

Legend:
BALB/c female mice [1] = test: Contact hypersensitivity, TNBS sensitization / TNCB ear challenge (ear swelling); assay type: in vivo; conditions: for % SUPPRESSION: TNBS 35 µg
Procedure: BALB/c female mice were maintained in a specific pathogen-free colony. Age-matched mice between 8 and 12 weeks of age were maintained in filter-protected cages and fed mouse chow and water ad libitum. Lighting was controlled to provide 12 hours light-dark cycles.
A 7% (w/v) working solution of trinitrobenzene sulfonate (TNBS) was prepared in distilled water. […] For induction of sensitization, each of 5 Balb/c mice received epicutaneous application of 35 µg of TNBS via a Hilltop chamber for 5 hours.
A contact hypersensitivity response was elicited on day 5 by challenging the right ear of each mouse with 20 µl of 1% trinitronchlorobenzene (TNCB) (in acetone). Ear thickness was measured with a spring-loaded caliper immediately before challenge, and at 24 and 48 hours after challenge. Ear thickness was measured in mm X 10^-3.
The statistical significance of differences in the contact hypersensitivity response between control and treated mice was determined using Student's t test for two independent variables. Each group contained five mice. Negative control mice were treated for 24 hours with 100 µl of PBS, pH 5.5, and challenged on the right ear 5 days later with 20 µl of 1% TNCB.
The mice were then epicutaneously sensitized with 100 µl of 0.035% TNBS (w/v) in PBS, pH 5.5.
For pretreatment plus co-administration, mice were first pretreated for 24 hours as above. Thereafter, 6000 µg of UCA (100 µl of 6% solution, 60 mg/ml in PBS pH 5.5) were placed in the Hilltop chamber along with 35 µg of TNBS.
Sensitization with TNBS was induced as described above.

[2] = Percutaneous permeation of urocanic acid isomers through human cadaver skin (Franz cell diffusion chambers); assay type: in vitro ADME; conditions: in words
Procedure: Skin permeation experiments were undertaken to measure the flux of cis-UCA and the trans-UCA) through human skin. This information is required for topical delivery of cis-UCA using a TDS.
cis-UCA was prepared by ultraviolet irradiation of solutions of trans-UCA (obtained from Sigma Chemical Co., St. Louis, MO), as described above (see Example 1 above).
For skin permeation experiments, human cadaver skin was obtained and sectioned on a dermatome to yield a partial thickness skin of about 400 µm. Partial thickness skin samples were transferred to standard Franz cell diffusion chambers with the stratum corneum side up, and equilibrated with phosphate buffered saline (PBS) at pH 7.2. at 35°C in standard thermal blocks (Pierce Reacti-Therm).
Three different solution of UV-irradiated UCA were prepared. All samples were mixtures of both cis-UCA and trans-UCA, contained about between 55% to 67% cis-UCA. The three different solutions (0.5 ml) were applied to the skin samples in the donor chamber of the diffusion chamber, and fractions of the receptor solution (saline) were collected and the amount of cis and trans isomers that permeated through the skin determined by standard HPLC methods. […] The tissue extracts were neutralized and aliquots analyzed by HPLC.

inflamed skin = test: Anti-inflammatory effect on bee-sting inflamed skin (single human subject); assay type: in vivo
Procedure: A subject was stung by a bee on the medial aspect of the lower portion of the right leg. Within one hour the skin site surrounding the bite became inflamed and an allergic reaction of the delayed hypersensitivity type was seen 24 hours later. […] This response persisted for several days.
The affected area was treated by application of 2% cis-UCA in a gel formulation (hydroxylpropylmethyl cellulose) to a 2-3 cm^2 area of inflamed skin. For a control, a similarly sized area of inflamed skin received the same hydroxylpropylmethyl cellulose gel without cis-UCA. Both treated areas were covered with a transparent dressing.

BALB/c female mice [3] = test: Contact hypersensitivity, TNBS sensitization / TNCB ear challenge (ear swelling); assay type: in vivo
dermal mast cells = test: Chymase depletion from mast cells in skin organ cultures (immunohistochemical staining); assay type: cell-based
Procedure: Chymase is a proteolytic enzyme with chymotrypsin activity that is released from dermal mast cells upon degranulation. The enzyme has been implicated in proteolytic breakdown of endothelial cell basement membrane matrix proteins and to thereby facilitate leukocyte diapedesis. The release of chymase from mast cells was detected as a depletion of chymase-specific immunohistochemical staining observed in cryosections of the dermis in skin organ cultures. As a positive control 5 mM of morphine sulfate (MSO4 + ctrl) was added to the culture medium bathing the skin organ cultures. The negative control was untreated culture medium (SCM-ctrl). Cis-urocanic acid was added to the culture medium at 1 µg/ml and 10 µg/ml.

Balb/c mice [4] = test: Contact hypersensitivity, DNCB sensitization / DNCB ear challenge (ear swelling); assay type: in vivo
Balb/c mice [5] = test: Immune tolerance induction: re-sensitization with DNCB at a second skin site and re-challenge; assay type: in vivo; conditions: for EAR THICKNESS: DNCB 100 µg re-sensitization day 22, 24 Hours after re-challenge; for % SUPPRESSION / EAR SWELLING: DNCB day 22, 24 Hours
Procedure: To induce immune tolerance, Balb/c mice were treated with CUA in gel formulation as outlined above and a sensitization response elicited in the standard manner. Two weeks later, the previously sensitized mice were re-sensitized by applying 10 µl of 1% DNCB to a second skin site on shaved backs of both control (non-sensitized) and experimental (immunosuppressed by prior treatment with CUA) mice. Both control and experimental animals were challenged 5 days later by application of 20 µl of 1% DNCB to the left ear; ear thickness measurements were made 24 hours later.
Balb/c mice (N=8) were pretreated for 24 hours with 1% CUA in HPMC gel or 5% CUA in HPMC gel on the shaved abdominal skin (site 1), and challenged on the right ear five days later. The CUA-treated mice were immunosuppressed as shown in Table X. The same mice were re-sensitized with DNCB on a demarcated area of their shaved backs and rechallenged five days later on their left ears, and the ear thickness measured 24 hours post-challenge.

[6] = 2 mg (1%) HPMC gel pretreat, DNCB 100 µg, 24 Hours
[7] = 2 mg (1%) HPMC gel pretreat, DNCB 100 µg, 72 Hours
[8] = 10 mg (5%) HPMC gel pretreat, DNCB 100 µg, 24 Hours
[9] = 10 mg (5%) HPMC gel pretreat, DNCB 100 µg, 72 Hours
[10] = 5 Hours Pretreat 15 mg + DNCB 100 µg, 24 Hours
[11] = 5 Hours Pretreat 15 mg + DNCB 100 µg, 48 Hours
[12] = 24 Hours Pretreat 10 mg, then DNCB gel 100 µg, 24 Hours
[13] = 24 Hours Pretreat 10 mg, then DNCB gel 100 µg, 48 Hours
[14] = 24 Hours Pretreat 15 mg + DNCB 100 µg, 24 Hours
[15] = 24 Hours Pretreat 15 mg + DNCB 100 µg, 48 Hours
[16] = Co-Delivery, 10 mg + DNCB 100 µg, 24 Hours
[17] = Co-Delivery, 10 mg + DNCB 100 µg, 48 Hours

## O=C(O)/C=C/c1cnc[nH]1 [trans-UCA, trans-urocanic acid, reference compound]
BALB/c female mice [1]; other experiments, compared with cis-UCA
  suppressive activity on contact sensitization (in words): much less suppressive activity
[2]
  fluxes through human skin (comparison of isomers): comparable fluxes

## O=C(O)/C=C\c1c[nH]cn1 [cis-UCA, cis-urocanic acid]
Inflamed skin; 2% gel, 14 hours after initiation of treatment
  appearance of treated skin site: depressed (appearing normal) and lacked any red color
Inflamed skin; 2% in hydroxylpropylmethyl cellulose gel, 2-3 cm^2 area, approximately 1 hour after application
  erythema and induration of inflamed skin: erythema and induration disappeared
BALB/c female mice [3]; 200 µg, 24 hours before TNBS 3.5 mg, 24 hours after challenge
  % SUPPRESSION: 36%
BALB/c female mice [3]; 600 µg, 24 hours before TNBS 3.5 mg, 24 hours after challenge
  % SUPPRESSION: 63%
BALB/c female mice [3]; pretreatment + co-administration, TNBS 35 µg, 24 Hours
  % SUPPRESSION: 52.8%
BALB/c female mice [3]; pretreatment + co-administration, TNBS 35 µg, 48 Hours
  % SUPPRESSION: 56%
BALB/c female mice [3]; pretreatment + co-administration, TNBS 35 µg, 48 Hours, listed as cis-UROCANIC ACID
  % SUPPRESSION: 55.8%
BALB/c female mice [3]; pretreatment only, 6% UCA PBS pH 5.5, TNBS 35 µg, 24 Hours
  % SUPPRESSION: 68.3%
BALB/c female mice [3]; pretreatment only, 6% UCA PBS pH 5.5, TNBS 35 µg, 48 Hours
  % SUPPRESSION: 77%
BALB/c female mice [3]; pretreatment only, 6% UCA PBS pH 5.5, TNBS 35 µg, 48 Hours, listed as cis-UROCANIC ACID
  % SUPPRESSION: 77.2%
BALB/c female mice [1]; intradermal injection 200 µg, 24 Hours
  % SUPPRESSION: 48% and 48.4%
BALB/c female mice [1]; intradermal injection 200 µg, 48 Hours
  % SUPPRESSION: 32% and 31.6%
BALB/c female mice [1]; pretreatment + co-administration, 24 Hours
  % SUPPRESSION: 53%
BALB/c female mice [1]; pretreatment only, 6% UCA PBS pH 5.5, 24 Hours
  % SUPPRESSION: 68%
[2]
  fluxes through human skin (comparison of isomers): comparable fluxes
Dermal mast cells; 1 µg/ml in culture medium
  chymase positive mast cell per mm^2: 22 ± 20 per mm^2
Dermal mast cells; 10 µg/ml in culture medium
  chymase positive mast cell per mm^2: 20 ± 10 per mm^2
Balb/c mice [4]; [6]
  % SUPPRESSION: 71%
  EAR SWELLING: 26 mm X 10^3
Balb/c mice [4]; [7]
  EAR SWELLING: 48 mm X 10^3
  EAR THICKNESS: 288 ± 23 mm X 10^3
Balb/c mice [4]; 2 mg (1%) HPMC gel, 24 h pretreatment, DNCB 100 µg, 24 Hours
  EAR THICKNESS: 270 ± 16 mm X 10^3
Balb/c mice [4]; [8]
  % SUPPRESSION: 80%
  EAR SWELLING: 18 mm X 10^3
  EAR THICKNESS: 261 ± 15 mm X 10^3
Balb/c mice [4]; [9]
  % SUPPRESSION: 59%
  EAR SWELLING: 30 mm X 10^3
  EAR THICKNESS: 270 ± 15 mm X 10^3
Balb/c mice [4]; 5 Hours Pretreat 15 mg (7.5% gel) + DNCB 100 µg, 24 Hours
  EAR THICKNESS: 285 ± 27 mm X 10^3
Balb/c mice [4]; [10]
  % SUPPRESSION: 46%
  EAR SWELLING: 42 mm X 10^3
Balb/c mice [4]; [11]
  % SUPPRESSION: 27%
  EAR SWELLING: 42 mm X 10^3
  EAR THICKNESS: 284 ± 20 mm X 10^3
Balb/c mice [4]; 24 Hours Pretreat 10 mg (5% gel), then DNCB gel 100 µg, 24 Hours
  EAR THICKNESS: 260 ± 19 mm X 10^3
Balb/c mice [4]; [12]
  % SUPPRESSION: 52%
  EAR SWELLING: 29 mm X 10^3
Balb/c mice [4]; [13]
  % SUPPRESSION: 69%
  EAR SWELLING: 20 mm X 10^3
  EAR THICKNESS: 259 ± 12 mm X 10^3
Balb/c mice [4]; 24 Hours Pretreat 15 mg (7.5% gel) + DNCB 100 µg, 24 Hours
  EAR THICKNESS: 288 ± 25 mm X 10^3
Balb/c mice [4]; [14]
  % SUPPRESSION: 59%
  EAR SWELLING: 47 mm X 10^3
Balb/c mice [4]; [15]
  % SUPPRESSION: 54%
  EAR SWELLING: 36 mm X 10^3
  EAR THICKNESS: 276 ± 14 mm X 10^3
Balb/c mice [4]; Co-Delivery, 10 mg (5% gel) + DNCB 100 µg, 24 Hours
  EAR THICKNESS: 277 ± 27 mm X 10^3
Balb/c mice [4]; [16]
  % SUPPRESSION: not statistically significant
  EAR SWELLING: 39 mm X 10^3
Balb/c mice [4]; Co-Delivery, 10 mg + DNCB 100 µg, 24 Hours, listed as UCA
  % SUPPRESSION: 28%
Balb/c mice [4]; [17]
  % SUPPRESSION: 29%
  EAR SWELLING: 43 mm X 10^3
  EAR THICKNESS: 273 ± 23 mm X 10^3
Balb/c mice [5]; 2 mg (1% HPMC gel) day -1
  EAR THICKNESS: 327 ± 60 mm X 10^3
Balb/c mice [5]; 2 mg day -1
  % SUPPRESSION: 51%
  EAR SWELLING: 70 mm X 10^3
Balb/c mice [5]; 10 mg (5% HPMC gel) day -1
  EAR THICKNESS: 334 ± 17 mm X 10^3
Balb/c mice [5]; 10 mg day -1
  % SUPPRESSION: 42%
  EAR SWELLING: 84 mm X 10^3

## CCN(CC)CCCC(C)Nc1ccnc2cc(Cl)ccc12 (stereo not drawn) [chloroquine, Chloroquine, reference compound]
BALB/c female mice [3]; 200 µg intradermally, TNBS 2.45 mg, 24 Hours
  % SUPPRESSION: 39.6%
BALB/c female mice [3]; 200 µg intradermally, TNBS 2.45 mg, 48 Hours
  % SUPPRESSION: 46.5%
